In ChEMBL document CHEMBL4507256 (2021):

Legend:
[1] = test system: Tyrosine-protein kinase ABL1 (Homo sapiens), P00519 [F317I]; settings: Compound concentration 1000.0 nM
[2] = test system: Tyrosine-protein kinase ABL1 (Homo sapiens), P00519 [F317L]; settings: Compound concentration 1000.0 nM
[3] = target: Activin receptor type-2B (Homo sapiens) (UniProt Q13705); settings: Compound concentration 1000.0 nM
[4] = target: Calcium/calmodulin-dependent protein kinase type IV (Homo sapiens) (UniProt Q16566); settings: Compound concentration 1000.0 nM
[5] = target: Cyclin-dependent kinase 4 (Homo sapiens) (UniProt P11802); settings: Compound concentration 1000.0 nM
[6] = target: Cyclin-dependent kinase 7 (Homo sapiens) (UniProt P50613); settings: Compound concentration 1000.0 nM
[7] = target: Cyclin-dependent kinase 8 (Homo sapiens) (UniProt P49336); settings: Compound concentration 1000.0 nM
[8] = target: Serine/threonine-protein kinase Chk1 (Homo sapiens) (UniProt O14757); settings: Compound concentration 1000.0 nM
Chain of Serine/threonine-protein kinase Chk1 (Homo sapiens) (O14757 whole entry, canonical isoform): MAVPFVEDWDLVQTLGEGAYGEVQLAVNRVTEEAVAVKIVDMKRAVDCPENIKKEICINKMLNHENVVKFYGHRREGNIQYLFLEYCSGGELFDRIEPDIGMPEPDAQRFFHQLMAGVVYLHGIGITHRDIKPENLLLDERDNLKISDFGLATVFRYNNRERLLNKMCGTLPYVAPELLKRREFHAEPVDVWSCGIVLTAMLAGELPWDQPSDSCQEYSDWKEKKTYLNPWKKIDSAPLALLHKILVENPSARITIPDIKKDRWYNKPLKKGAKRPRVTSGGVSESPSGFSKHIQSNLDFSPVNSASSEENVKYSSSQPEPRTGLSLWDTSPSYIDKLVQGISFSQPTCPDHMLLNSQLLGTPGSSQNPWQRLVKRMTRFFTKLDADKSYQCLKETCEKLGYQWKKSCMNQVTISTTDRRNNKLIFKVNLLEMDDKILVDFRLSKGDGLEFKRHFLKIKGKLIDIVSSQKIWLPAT

[9] = target: Casein kinase I isoform epsilon (Homo sapiens) (UniProt P49674); settings: Compound concentration 1000.0 nM
[10] = target: Casein kinase II subunit alpha (Homo sapiens) (UniProt P68400); settings: Compound concentration 1000.0 nM
[11] = target: Ephrin type-B receptor 6 (Homo sapiens) (UniProt O15197); settings: Compound concentration 1000.0 nM
Chain of Ephrin type-B receptor 6 (Homo sapiens) (O15197 whole entry): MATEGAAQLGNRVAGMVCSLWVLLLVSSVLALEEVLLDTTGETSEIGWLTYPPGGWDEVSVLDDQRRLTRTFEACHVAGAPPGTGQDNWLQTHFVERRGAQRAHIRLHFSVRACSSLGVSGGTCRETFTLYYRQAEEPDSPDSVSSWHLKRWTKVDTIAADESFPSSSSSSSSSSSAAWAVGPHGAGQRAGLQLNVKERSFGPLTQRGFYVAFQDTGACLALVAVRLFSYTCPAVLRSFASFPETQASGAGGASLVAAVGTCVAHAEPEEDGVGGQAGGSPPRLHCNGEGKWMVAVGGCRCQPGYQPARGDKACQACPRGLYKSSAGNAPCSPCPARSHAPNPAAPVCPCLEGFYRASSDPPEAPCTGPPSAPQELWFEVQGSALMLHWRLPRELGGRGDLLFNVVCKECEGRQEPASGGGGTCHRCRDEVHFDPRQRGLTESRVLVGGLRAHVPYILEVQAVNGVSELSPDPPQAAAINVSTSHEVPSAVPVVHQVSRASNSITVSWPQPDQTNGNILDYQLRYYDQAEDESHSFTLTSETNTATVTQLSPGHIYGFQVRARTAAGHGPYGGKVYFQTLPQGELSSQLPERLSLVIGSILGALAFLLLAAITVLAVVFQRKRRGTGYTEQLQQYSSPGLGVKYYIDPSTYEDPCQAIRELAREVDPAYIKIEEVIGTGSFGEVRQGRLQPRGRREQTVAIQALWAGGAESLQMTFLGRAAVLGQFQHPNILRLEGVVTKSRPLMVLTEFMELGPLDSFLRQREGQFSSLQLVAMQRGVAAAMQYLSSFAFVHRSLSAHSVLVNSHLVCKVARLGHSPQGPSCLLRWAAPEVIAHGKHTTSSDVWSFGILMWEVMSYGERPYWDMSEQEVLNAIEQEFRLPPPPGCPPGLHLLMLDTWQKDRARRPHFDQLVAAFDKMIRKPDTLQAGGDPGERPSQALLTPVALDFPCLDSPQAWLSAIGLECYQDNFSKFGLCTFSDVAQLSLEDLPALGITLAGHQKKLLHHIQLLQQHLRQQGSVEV

[12] = target: Fibroblast growth factor receptor 1 (Homo sapiens) (UniProt P11362); settings: Compound concentration 1000.0 nM
[13] = test system: Receptor-type tyrosine-protein kinase FLT3 (Homo sapiens), P36888 [N841I]; settings: Compound concentration 1000.0 nM
[14] = target: Inhibitor of nuclear factor kappa-B kinase subunit epsilon (Homo sapiens) (UniProt Q14164); settings: Compound concentration 1000.0 nM
Chain of Inhibitor of nuclear factor kappa-B kinase subunit epsilon (Homo sapiens) (Q14164 whole entry): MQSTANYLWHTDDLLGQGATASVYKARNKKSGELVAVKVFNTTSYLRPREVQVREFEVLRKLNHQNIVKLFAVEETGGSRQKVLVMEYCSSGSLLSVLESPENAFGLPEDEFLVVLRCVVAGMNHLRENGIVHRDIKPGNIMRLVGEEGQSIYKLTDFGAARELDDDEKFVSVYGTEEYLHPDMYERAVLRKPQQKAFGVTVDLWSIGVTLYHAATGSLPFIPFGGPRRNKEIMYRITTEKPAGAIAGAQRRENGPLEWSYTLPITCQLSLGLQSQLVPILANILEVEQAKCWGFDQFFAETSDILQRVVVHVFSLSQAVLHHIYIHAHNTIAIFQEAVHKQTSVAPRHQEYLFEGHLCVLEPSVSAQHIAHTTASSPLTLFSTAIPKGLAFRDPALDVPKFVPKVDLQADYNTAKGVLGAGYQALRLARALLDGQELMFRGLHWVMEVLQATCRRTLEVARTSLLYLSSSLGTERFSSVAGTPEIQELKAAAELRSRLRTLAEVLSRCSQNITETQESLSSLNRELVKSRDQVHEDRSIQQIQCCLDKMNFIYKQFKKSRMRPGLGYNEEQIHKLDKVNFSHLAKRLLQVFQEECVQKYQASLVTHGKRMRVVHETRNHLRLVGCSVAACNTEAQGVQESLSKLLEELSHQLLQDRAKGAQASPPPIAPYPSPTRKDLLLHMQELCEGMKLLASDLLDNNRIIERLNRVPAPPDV

[15] = target: Insulin receptor-related protein (Homo sapiens) (UniProt P14616); settings: Compound concentration 1000.0 nM
[16] = target: Mast/stem cell growth factor receptor Kit (Homo sapiens) (UniProt P10721); settings: Compound concentration 1000.0 nM
[17] = target: Tyrosine-protein kinase Lck (Homo sapiens) (UniProt P06239); settings: Compound concentration 1000.0 nM
[18] = target: Leucine-rich repeat serine/threonine-protein kinase 2 (Homo sapiens) (UniProt Q5S007); settings: Compound concentration 1000.0 nM
[19] = target: Mitogen-activated protein kinase 12 (Homo sapiens) (UniProt P53778); settings: Compound concentration 1000.0 nM
[20] = test system: Phosphatidylinositol 4,5-bisphosphate 3-kinase catalytic subunit alpha isoform (Homo sapiens), P42336 [C420R]; settings: Compound concentration 1000.0 nM
Chain of Phosphatidylinositol 4,5-bisphosphate 3-kinase catalytic subunit alpha isoform (Homo sapiens), P42336 [C420R] (P42336 whole entry C420R, canonical isoform): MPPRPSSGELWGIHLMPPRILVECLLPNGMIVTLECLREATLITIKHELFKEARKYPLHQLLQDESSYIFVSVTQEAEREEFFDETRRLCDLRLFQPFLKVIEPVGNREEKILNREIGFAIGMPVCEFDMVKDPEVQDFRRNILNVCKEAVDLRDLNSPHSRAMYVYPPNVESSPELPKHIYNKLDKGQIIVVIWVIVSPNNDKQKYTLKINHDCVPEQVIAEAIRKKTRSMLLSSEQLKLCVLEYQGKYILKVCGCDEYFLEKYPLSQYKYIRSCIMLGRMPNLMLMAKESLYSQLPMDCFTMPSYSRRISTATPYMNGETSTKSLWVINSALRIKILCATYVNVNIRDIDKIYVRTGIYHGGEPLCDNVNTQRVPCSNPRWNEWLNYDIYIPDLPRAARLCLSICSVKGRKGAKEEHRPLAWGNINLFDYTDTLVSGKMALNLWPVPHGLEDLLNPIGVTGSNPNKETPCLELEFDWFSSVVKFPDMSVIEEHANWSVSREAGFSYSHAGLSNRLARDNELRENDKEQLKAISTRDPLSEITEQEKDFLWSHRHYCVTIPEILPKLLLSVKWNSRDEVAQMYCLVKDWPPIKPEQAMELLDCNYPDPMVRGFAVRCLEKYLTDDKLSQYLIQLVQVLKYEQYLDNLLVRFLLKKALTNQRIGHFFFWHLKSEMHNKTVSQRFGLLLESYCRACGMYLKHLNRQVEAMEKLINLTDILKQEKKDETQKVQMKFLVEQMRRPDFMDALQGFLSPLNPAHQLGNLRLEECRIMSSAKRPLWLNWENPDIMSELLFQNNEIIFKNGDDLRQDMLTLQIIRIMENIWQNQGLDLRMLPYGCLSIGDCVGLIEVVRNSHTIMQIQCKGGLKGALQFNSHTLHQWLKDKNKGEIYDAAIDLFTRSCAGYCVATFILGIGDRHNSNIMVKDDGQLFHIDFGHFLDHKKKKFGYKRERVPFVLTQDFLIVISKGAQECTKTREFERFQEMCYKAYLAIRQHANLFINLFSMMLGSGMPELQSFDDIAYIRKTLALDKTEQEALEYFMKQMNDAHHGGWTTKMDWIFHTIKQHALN

[21] = test system: Phosphatidylinositol 4,5-bisphosphate 3-kinase catalytic subunit alpha isoform (Homo sapiens), P42336 [I800L]; settings: Compound concentration 1000.0 nM
Chain of Phosphatidylinositol 4,5-bisphosphate 3-kinase catalytic subunit alpha isoform (Homo sapiens), P42336 [I800L] (P42336 whole entry I800L, canonical isoform): as the sequence (P42336 whole entry C420R, canonical isoform) above, with R420C, I800L counted along it

[22] = target: Serine/threonine-protein kinase PLK3 (Homo sapiens) (UniProt Q9H4B4); settings: Compound concentration 1000.0 nM
[23] = test system: Proto-oncogene tyrosine-protein kinase receptor Ret (Homo sapiens), P07949 [M918T]; settings: Compound concentration 1000.0 nM
[24] = target: Serine/threonine-protein kinase RIO2 (Homo sapiens) (UniProt Q9BVS4); settings: Compound concentration 1000.0 nM
[25] = target: Proto-oncogene tyrosine-protein kinase ROS (Homo sapiens) (UniProt P08922); settings: Compound concentration 1000.0 nM
[26] = target: Ribosomal protein S6 kinase alpha-2 (Homo sapiens) (UniProt Q15349); settings: Compound concentration 1000.0 nM
Chain of Ribosomal protein S6 kinase alpha-2 (Homo sapiens) (Q15349 whole entry): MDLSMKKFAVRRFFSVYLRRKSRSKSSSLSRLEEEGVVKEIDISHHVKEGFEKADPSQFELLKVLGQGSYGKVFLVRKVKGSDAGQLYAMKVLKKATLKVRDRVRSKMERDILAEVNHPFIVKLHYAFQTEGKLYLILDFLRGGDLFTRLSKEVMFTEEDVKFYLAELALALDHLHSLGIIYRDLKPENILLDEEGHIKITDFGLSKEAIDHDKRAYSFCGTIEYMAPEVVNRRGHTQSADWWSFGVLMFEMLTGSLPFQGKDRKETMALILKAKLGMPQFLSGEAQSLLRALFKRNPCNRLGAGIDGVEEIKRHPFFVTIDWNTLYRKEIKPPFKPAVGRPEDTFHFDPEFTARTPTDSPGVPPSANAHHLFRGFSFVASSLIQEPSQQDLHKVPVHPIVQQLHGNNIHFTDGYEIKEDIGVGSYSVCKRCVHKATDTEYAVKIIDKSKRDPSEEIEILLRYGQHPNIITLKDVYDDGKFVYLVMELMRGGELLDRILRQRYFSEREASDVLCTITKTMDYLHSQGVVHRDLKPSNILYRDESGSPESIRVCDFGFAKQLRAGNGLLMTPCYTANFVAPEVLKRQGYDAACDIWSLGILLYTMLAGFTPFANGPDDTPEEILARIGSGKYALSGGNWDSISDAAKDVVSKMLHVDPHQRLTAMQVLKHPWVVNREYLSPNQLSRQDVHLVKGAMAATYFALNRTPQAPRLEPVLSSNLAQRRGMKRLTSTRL

[27] = target: Testis-specific serine/threonine-protein kinase 3 (Homo sapiens) (UniProt Q96PN8); settings: Compound concentration 1000.0 nM
Chain of Testis-specific serine/threonine-protein kinase 3 (Homo sapiens) (Q96PN8 whole entry): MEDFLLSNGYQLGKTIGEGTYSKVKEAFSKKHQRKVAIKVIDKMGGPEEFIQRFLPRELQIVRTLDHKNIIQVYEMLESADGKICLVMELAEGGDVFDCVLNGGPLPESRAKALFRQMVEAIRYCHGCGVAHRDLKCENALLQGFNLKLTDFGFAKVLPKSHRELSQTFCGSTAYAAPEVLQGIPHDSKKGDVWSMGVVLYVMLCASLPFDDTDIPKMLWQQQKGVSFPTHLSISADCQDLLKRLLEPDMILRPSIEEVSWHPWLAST

[28] = target: Dual specificity protein kinase TTK (Homo sapiens) (UniProt P33981); settings: Compound concentration 1000.0 nM
[29] = target: Serine/threonine-protein kinase ULK3 (Homo sapiens) (UniProt Q6PHR2); settings: Compound concentration 1000.0 nM
Chain of Serine/threonine-protein kinase ULK3 (Homo sapiens) (Q6PHR2 whole entry): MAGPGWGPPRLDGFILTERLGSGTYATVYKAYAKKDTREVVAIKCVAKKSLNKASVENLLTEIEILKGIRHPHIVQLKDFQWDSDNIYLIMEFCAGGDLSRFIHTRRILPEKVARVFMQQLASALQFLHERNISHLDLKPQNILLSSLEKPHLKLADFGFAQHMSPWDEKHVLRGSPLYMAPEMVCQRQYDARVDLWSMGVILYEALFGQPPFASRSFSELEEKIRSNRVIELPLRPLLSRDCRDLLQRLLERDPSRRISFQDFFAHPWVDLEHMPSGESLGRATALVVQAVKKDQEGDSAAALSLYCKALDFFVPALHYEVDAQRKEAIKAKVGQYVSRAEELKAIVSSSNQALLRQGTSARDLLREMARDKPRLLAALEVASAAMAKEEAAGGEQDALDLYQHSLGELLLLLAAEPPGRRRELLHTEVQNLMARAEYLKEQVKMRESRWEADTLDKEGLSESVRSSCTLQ

[30] = target: T1, 5-hydroxytryptamine receptor 3A (Homo sapiens) (UniProt P46098); settings: Compound concentration 10.0 uM
T1 sequence (whole entry): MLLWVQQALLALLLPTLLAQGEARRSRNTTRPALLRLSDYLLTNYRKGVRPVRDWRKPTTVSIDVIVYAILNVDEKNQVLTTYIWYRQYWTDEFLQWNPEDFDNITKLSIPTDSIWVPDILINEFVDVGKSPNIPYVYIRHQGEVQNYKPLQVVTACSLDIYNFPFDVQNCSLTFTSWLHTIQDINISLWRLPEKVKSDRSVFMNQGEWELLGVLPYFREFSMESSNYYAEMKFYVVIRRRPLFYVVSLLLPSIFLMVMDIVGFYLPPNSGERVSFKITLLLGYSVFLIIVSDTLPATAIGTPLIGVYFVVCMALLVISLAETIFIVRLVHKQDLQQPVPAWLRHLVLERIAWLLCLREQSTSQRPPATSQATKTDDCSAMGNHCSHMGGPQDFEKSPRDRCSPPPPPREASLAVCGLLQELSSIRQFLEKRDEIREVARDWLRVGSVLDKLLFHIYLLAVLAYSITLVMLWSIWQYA

[31] = target: T2, Muscarinic acetylcholine receptor M5 (Homo sapiens) (UniProt P08912); settings: Compound concentration 10.0 uM
T2 sequence (whole entry): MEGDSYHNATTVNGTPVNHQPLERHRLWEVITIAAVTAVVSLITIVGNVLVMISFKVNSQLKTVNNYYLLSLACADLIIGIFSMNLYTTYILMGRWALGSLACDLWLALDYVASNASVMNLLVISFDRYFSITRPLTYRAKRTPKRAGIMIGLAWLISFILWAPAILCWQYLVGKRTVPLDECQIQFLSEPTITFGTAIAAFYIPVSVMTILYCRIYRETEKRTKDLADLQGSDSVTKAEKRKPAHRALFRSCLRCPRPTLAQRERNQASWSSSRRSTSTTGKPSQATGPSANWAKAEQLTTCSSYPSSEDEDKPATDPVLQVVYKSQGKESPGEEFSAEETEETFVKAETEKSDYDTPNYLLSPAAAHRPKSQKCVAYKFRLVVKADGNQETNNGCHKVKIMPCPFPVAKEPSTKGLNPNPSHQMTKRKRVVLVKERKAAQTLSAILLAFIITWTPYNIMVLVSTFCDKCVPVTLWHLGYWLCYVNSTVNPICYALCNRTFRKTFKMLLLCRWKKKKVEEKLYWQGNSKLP

| Structure (SMILES) | residual activity [1] [%] | residual activity [2] [%] | residual activity [3] [%] | residual activity [4] [%] | residual activity [5] [%] | residual activity [6] [%] | residual activity [7] [%] | residual activity [8] [%] | residual activity [9] [%] | residual activity [10] [%] | residual activity [11] [%] | residual activity [12] [%] | residual activity [13] [%] | residual activity [14] [%] | residual activity [15] [%] | residual activity [16] [%] | residual activity [17] [%] | residual activity [18] [%] | residual activity [19] [%] | residual activity [20] [%] | other results |
| --- | --- | --- | --- | --- | --- | --- | --- | --- | --- | --- | --- | --- | --- | --- | --- | --- | --- | --- | --- | --- | --- |
| CCC(=N\O)/C(C)=C/c1ccc(F)c(C)c1 [A-226] | 100 | 100 | 100 | 87 | 100 | 93 | 73 | 83 | 92 | 100 | 100 | 57 | 49 | 100 | 100 | 100 | 87 | 100 | 88 | 100 | residual activity [21]: 100%; residual activity [22]: 100%; residual activity [23]: 92%; residual activity [24]: 73%; residual activity [25]: 88%; residual activity [26]: 100%; residual activity [27]: 100%; residual activity [28]: 93%; residual activity [29]: 100%; inhibition [30]: 0.44%; inhibition [31]: 2.77% |
| CCC(=N\O)/C(C)=C/c1ccc(F)cc1 [A-079] | 77 | 81 | 91 | 69 | 74 | 60 | 100 | 83 | 99 | 74 | 95 | 100 | 74 | 94 | 83 | 80 | 82 | 90 | 100 | 79 | residual activity [21]: 100%; residual activity [22]: 86%; residual activity [23]: 100%; residual activity [24]: 86%; residual activity [25]: 87%; residual activity [26]: 100%; residual activity [27]: 99%; residual activity [28]: 96%; residual activity [29]: 74%; inhibition [30]: -4.62%; inhibition [31]: 6.68% |
